Measured values taken from patent publication US7517910B2, “Alkoxyphenylpropanoic acid derivatives” (Takeda Pharmaceutical Company Limited, priority 2004, dated 2009).
pEC50: −log10 of the molar value. Counter-ions that a name gives are not always drawn.

These compounds were tested against T1, human GPR40 (Homo sapiens, UniProt O14842) (assay: Determination of EC50 against human GPR40: change in intracellular calcium concentration by FLIPR in CHO cells stably expressing human GPR40). Settings: CHO cell line stably expressing human GPR40; intracellular calcium change measured by FLIPR (Fluo3-AM); EC50 from dose-response curve; read-out: EC50 (receptor function modulating action on GPR40).
T1 construct: expressed in transfected cells; host or cells: CHO cell line stably expressing human GPR40
T1 sequence (O14842 whole entry): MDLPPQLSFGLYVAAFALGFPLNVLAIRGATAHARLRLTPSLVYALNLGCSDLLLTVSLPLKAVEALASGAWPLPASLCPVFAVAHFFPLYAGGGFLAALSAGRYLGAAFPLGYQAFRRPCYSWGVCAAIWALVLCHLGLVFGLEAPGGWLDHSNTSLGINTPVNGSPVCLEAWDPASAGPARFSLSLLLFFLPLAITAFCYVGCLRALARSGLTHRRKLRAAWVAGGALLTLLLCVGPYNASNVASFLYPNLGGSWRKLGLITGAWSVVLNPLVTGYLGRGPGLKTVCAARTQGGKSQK
Type: cell-based
Procedure: Determination of EC50 of the compound of the present invention against human GPR40
For determination of EC50, CHO cell line that stably expressed human GPR40 was used. Unless otherwise indicated, the CHO cell line was cultured using α-MEM medium (Invitrogen) containing 10% fetal bovine serum (Invitrogen).
The cells cultured to nearly confluent were rinsed with PBS (Invitrogen) on the previous day of the assay, peeled off with 0.05% Trypsin.EDTA solution (Invitrogen) and recovered by centrifugation. The number of the obtained cells was counted, and the cells were diluted such that 3×10^5 cells were contained per 1 mL of the medium, dispensed to a black welled 96-well plate (coster) by 100 μL per well and cultured overnight in a CO2 incubator. Various test compounds were added to the CHO cells thus prepared, and the changes in the intracellular calcium concentration were measured using FLIPR (Molecular Device). The below-mentioned pre-treatment was applied to measure changes in the intracellular calcium concentration by FLIPR.
First, an assay buffer for adding a fluorescence dye Fluo3-AM (DOJIN) to the cells, or for washing the cells immediately before FLIPR assay was prepared. To a solution of HBSS (Invitrogen, 1000 mL) added 1 M HEPES (pH 7.4, DOJIN, 20 mL) (hereinafter HBSS/HEPES solution) was added a solution (10 mL) obtained by dissolving probenecid (Sigma, 710 mg) in 1 N NaOH (5 mL), and adding and mixing an HBSS/HEPES solution (5 mL), and the resulting solution was used as an assay buffer. Next, Fluo3-AM (50 μg) was dissolved in dimethyl sulfoxide (Wako, 21 μL), and an equivalent amount of 20% pluronic acid (Molecular Probes) was added and mixed. The solution was added to the assay buffer (10.6 mL) supplemented with fetal bovine serum (105 μL) to give a fluorescence dye solution. The medium of the CHO cells inoculated to the black welled 96-well plate on the previous day of assay was removed, the fluorescence dye solution was immediately dispensed by 100 μL per well and the cells were cultured in a CO2 incubator for 1 hr to allow intake of the fluorescence dye by the cells. The cells after the culture were washed with the above-mentioned assay buffer and set on FLIPR. The test compound was diluted with dimethylsulfoxide in advance, dispensed to a polypropylene 96-well plate (sample plate) by 2 μL, and cryopreserved at −20° C. To the thawed sample plate was added an assay buffer containing 0.015% CHAPS (DOJIN) by 198 μL, and simultaneously set on FLIPR together with the cell plate. After the aforementioned pre-treatment, changes in the intracellular calcium concentration upon addition of various test compounds was measured by FLIPR. Based on the results, a dose-response curve of each test compound was formed and EC50 was calculated.

SMILES | pEC50
Cc1cc(-c2ccccc2)n(Cc2ccc(COc3ccc(CCC(=O)O)cc3)cc2)n1 [Example 112, 3-[4-([4-[(3-methyl-5-phenyl-1H-pyrazol-1-yl)methyl]benzyl}oxy)phenyl]propanoic acid] | > 7.00
Cc1sc(C)c(-c2cccc(COc3ccc(CCC(=O)O)cc3)c2)c1C [Example 4, 3-(4-([3-(2,4,5-trimethyl-3-thienyl)benzyl]oxy}phenyl)propanoic acid] | > 8.00
CC(C)(C)c1cc(OCc2ccccc2)n(Cc2ccc(COc3ccc(CCC(=O)O)c(F)c3)cc2)n1 [Example 133, 3-{4-[(4-([5-(benzyloxy)-3-tert-butyl-1H-pyrazol-1-yl]methyl)benzyl)oxy]-2-fluorophenyl}propanoic acid calcium salt] | > 7.00
CC(C)COc1ccc(COc2ccc(CCC(=O)O)cc2)cc1CN1c2ccccc2CCC1C (centres unmarked) [Example 111, 3-[4-({4-isobutoxy-3-[(2-methyl-3,4-dihydroquinolin-1 (2H)-yl)methyl]benzyl}oxy)phenyl]propanoic acid] | > 6.00
Cc1cccc(COc2cc(C(C)(C)C)nn2Cc2ccc(COc3ccc(CCC(=O)O)c(F)c3)cc2)n1 [Example 137, 3-(4-{[4-({3-tert-butyl-5-[(6-methylpyridin-2-yl)methoxy]-1H-pyrazol-1-yl}methyl)benzyl]oxy}-2-fluorophenyl)propanoic acid calcium salt] | > 7.00
CC(C)(C)c1cc(COc2ccccc2)n(Cc2ccc(COc3ccc(CCC(=O)O)c(F)c3)cc2)n1 [Example 131, 3-{4-[(4-{[3-tert-butyl-5-(phenoxymethyl)-1H-pyrazol-1-yl]methyl}benzyl)oxy]-2-fluorophenyl}propanoic acid calcium salt] | > 7.00
CC1CCc2ccccc2N1c1cccc(COc2ccc(CCC(=O)O)cc2)c1 (centres unmarked) [Example 40, 3-(4-{[3-(2-methyl-3,4-dihydroquinolin-1 (2H)-yl)benzyl]oxy}phenyl)propanoic acid] | > 8.00
O=C(O)CCc1ccc(OCc2ccccc2-c2csc3ccccc23)cc1 [Example 10, 3-(4-{[2-(1-benzothiophen-3-yl)benzyl]oxy}phenyl)propanoic acid] | > 6.00
CC(C)(C)c1cc(-c2ccccc2)n(Cc2ccc(COc3ccc(CCC(=O)O)c(F)c3)cc2)n1 [Example 141, 3-[4-({4-[(3-tert-butyl-5-phenyl-1H-pyrazol-1-yl)methyl]benzyl)oxy)-2-fluorophenyl]propanoic acid] | > 7.00
CC(C)COc1ccc(COc2ccc(CCC(=O)O)cc2)cc1Cn1c(-c2ccccc2)cc2ccccc21 [Example 60, 3-[4-({4-isobutoxy-3-[(2-phenyl-1H-indol-1-yl)methyl]benzyl)oxy)phenyl]propanoic acid] | > 7.00

Second part, the compound after the results:

pEC50 | SMILES
> 7.00 | O=C(O)CCc1ccc(OCc2cccc(N3CCOC(c4ccccc4)C3)c2)cc1 (centres unmarked) [Example 29, 3-(4-{[3-(2-phenylmorpholin-4-yl)benzyl]oxy}phenyl)propanoic acid]
> 6.00 | O=C(O)CCc1ccc(OCc2ccc(Cn3nc(-c4ccc(C(F)(F)F)cc4)cc3CCc3ccccc3)cc2)cc1 [Example 65, 3-(4-{[4-({5-(2-phenylethyl)-3-[4-(trifluoromethyl)phenyl]-1H-pyrazol-1-yl}methyl)benzyl]oxy}phenyl)propanoic acid]
> 7.00 | CCOCCn1c(-c2ccccc2)c(-c2cccc(COc3ccc(CCC(=O)O)c(F)c3)c2)c2ccccc21 [Example 118, 3-[4-({3-[1-(2-ethoxyethyl)-2-phenyl-1H-indol-3-yl]benzyl}oxy)-2-fluorophenyl]propanoic acid]
> 7.00 | O=C(O)CCc1ccc(OCc2cccc(-c3ccc4c(ccn4Cc4ccccc4)c3)c2)cc1 [Example 20, 3-(4-([3-(1-benzyl-1H-indol-5-yl)benzyl]oxy}phenyl)propanoic acid]
> 7.00 | O=C(O)CCc1ccc(OCc2ccc(Cn3c(-c4ccccc4)cc4ccccc43)cc2)cc1 [Example 45, 3-[4-({4-[(2-phenyl-1H-indol-1-yl)methyl]benzyl}oxy)phenyl]propanoic acid]
> 6.00 | O=C(O)CCc1ccc(OCc2ccc(Cn3ccnc3-c3ccccc3)cc2)cc1 [Example 56, 3-[4-([4-[(2-phenyl-1H-imidazol-1-yl)methyl]benzyl]oxy)phenyl]propanoic acid]
> 8.00 | Cc1cc2ccccc2n1-c1cccc(COc2ccc(CCC(=O)O)cc2)c1 [Example 24, 3-(4-{[3-(2-methyl-1H-indol-1-yl)benzyl]oxy}phenyl)propanoic acid]
